We go through 3 molecules from US7547519B2, “Methods of diagnosing multidrug resistant tuberculosis” (The United States of America as represented by the …, priority 2000, dated 2009).

≈ marks a conversion by molar mass, not a printed value.

Test [1] relates to MSm. Kind of test: microbe, parasite or virus in culture. The class given is cell-based, Mycobacterium smegmatis.
Test [2] relates to MTb H37Rv. Particulars: wild type MTb; cited from earlier work.

As for `CCc1cc(C(N)=S=O)ccn1` [ETA S-oxide], in test [1], the “absolute MIC compared with ETA” value is reported as “lower”; the “effect of EtaR/EtaA overexpression on susceptibility” value was “EtaR conferred resistance and EtaA conferred hypersensitivity”.
As to `CCc1cc(C(N)=S)ccn1` [ETA, ethionamide], the MIC in test [2] was 1.0 µg/mL (≈ 6.02 µM). Moreover, in test [1], the “concentration at which growth occurred” value was 50 µg/mL, the “concentration at which transformants were able to grow” value is given as “greater than 200 μg/ml” and the “concentration with noticeable growth inhibition” value is 2.5 µg/mL. In test [1] (Mycolicibacterium smegmatis), this molecule yielded an MIC of more than 62.5 µg/mL.
As to `NNC(=O)c1ccncc1` [INH, isoniazid], the susceptibility to killing entry in test [1] was “equally susceptible”.
